Measured values: publication PMC3764026, “Adaptive Evolution of Escherichia coli to an α-Peptide/β-Peptoid Peptidomimetic Induces Stable Resistance” (PLoS ONE, 2013)
Converted amounts (≈) assume the structure as drawn. Like-named read-outs stand apart in the source and are kept apart here.

Legend:
[1] = test system: peptidomimetic-adapted E. coli isolates; details: for Potentiation (ability of plasma to interact synergistically with peptidomimetic 1): MHB vs MHB +25% plasma; for MIC in MHB +25% plasma: MHB with 25% human blood plasma (sodium citrate)
Procedure: (§1) MIC was determined by using the micro-dilution method according to guidelines of the Clinical and Laboratory Standards Institute. Peptidomimetic 1 and erythromycin 1∶2 serial dilutions were prepared from 1024 µg/mL stock solutions to give a final range of 512-0.5 µg/mL in the wells. Ampicillin 1∶2 serial dilutions were prepared from a 256 µg/mL stock solution to give a final range of 128-0.13 µg/mL in the wells. Polymyxin B and gentamicin 1∶2 serial dilutions were prepared from a 64 µg/mL stock solution to give a final range of 32-0.03 µg/mL in the wells.
(§2) The population lineages were tested for their susceptibility towards peptidomimetic 1, polymyxin B, gentamicin and ampicillin. Single-culture isolates selected from these populations were additionally tested against peptidomimetic 1, polymyxin B, erythromycin and the five reference AMPs. To estimate the level of cross-resistance to closely related peptidomimetics, MIC determinations were performed for peptidomimetics 2 and 3 (Figure 1) towards selected isolates. The bacterial suspensions were grown overnight in MHB at 37°C for determination of the population MIC, or individual isolates were grown overnight on non-selective BHI agar at 37°C. […] In all experiments, bacterial cells were suspended in 0.9% saline to give a turbidity of 0.13 at OD546 (approximately 1×10^8 CFU/mL) and diluted in MHB pH 7.4 to a final concentration of 5×10^5 CFU/mL in each well. Polypropylene plates (Nunc 442587) were used to minimize peptide binding, and the incubation time was 18–20 hours at 37°C. […] MIC was found in a minimum of two technical (population MIC) or biological (isolate MIC) replicates as the lowest concentration of the AMP or antibiotic where no visible growth was observed.
(§3) Four isolates, i.e. 2-7, 4-4, 5-6 and 7-3, a representative isolate from four different lineages, were revived from freeze storage. The four isolates were grown in 25–50% blood plasma and in 25–50% heat-inactivated plasma as previously described. Blood plasma was obtained from two different blood donors using sodium citrate as anticoagulant and experiments were performed on at least two independent days. Both donors were fully informed about the study and purpose and a written consent has been received. […] For this the 1∶2 serial dilutions were made in MHB with 50% blood plasma added to give a final concentration of 25% plasma in the wells.

[2] = test system: E. coli ATCC 25922; details: wild-type E. coli ATCC 25922
Procedure: as §1, §2, §3

[3] = test system: peptidomimetic-adapted E. coli isolates 2-7 and 7-3; assay: Growth rate in MHB supplemented with peptidomimetic 1, adapted isolates; format: cell-based, Escherichia coli
Procedure: To evaluate whether resistance altered the physiology of the isolates, we determined the growth rate of all forty isolates from lineage 2, 4, 5 and 7 as well as of E. coli ATCC 25922 in unsupplemented MHB media. Additionally, we determined the growth rate of the four isolates 2-7, 4-4, 5-6 and 7-3, in MHB supplemented with peptidomimetic 1 at ½×wild type MIC or 1×wild type MIC (i.e. 4 and 8 µg/mL). […] Optical density readings were obtained at 570 nm at 10–12 minute increments on cultures grown at 37°C over 24 hours (unsupplemented MHB) or 72 hours (supplemented MHB) using the automated Bioscreen C system (Labsystems, Helsinki, Finland). Growth rates were found using linear regression on ln(initial CFU/mL) vs. detection time (i.e. the time until a 0.5 unit increase in absorbance was reached) for inoculum sizes ranging from 10^2–10^7 CFU/mL [58]. Data were analysed in GraphPad Prism version 4.03 using One-Way ANOVA followed by Dunnett’s Test to correct for multiple testing. Control groups were E. coli ATCC 25922 (in the absence of peptidomimetic) or E. coli ATCC 25922/isolates grown in unsupplemented media (in the presence of peptidomimetic). Significance levels were in all tests set at p<0.05. All experiments were performed in duplicate on at least two independent days.

**Q.** `CC(=O)N[C@@H](CCCCNC(=N)N)C(=O)N(CCC(=O)N[C@@H](CCCCNC(=N)N)C(=O)N(CCC(=O)N[C@@H](CCCCNC(=N)N)C(=O)N(CCC(=O)N[C@@H](CCCCNC(=N)N)C(=O)N(CCC(=O)N[C@@H](CCCCNC(=N)N)C(=O)N(CCC(=O)N[C@@H](CCCCNC(=N)N)C(=O)N(CCC(N)=O)[C@@H](C)c1ccccc1)[C@@H](C)c1ccccc1)[C@@H](C)c1ccccc1)[C@@H](C)c1ccccc1)[C@@H](C)c1ccccc1)[C@@H](C)c1ccccc1` [peptidomimetic 1] was tested. Which “Potentiation (ability of plasma to interact synergistically with peptidomimetic 1)” value (“Potentiation” for short) ([1]; isolate 2–7) did it give?
**A.** Strong

**Q.** What about the “MIC in MHB +25% plasma” value ([1]; isolate 2–7) of the same compound?
**A.** 0.25 to 2 µg/mL

**Q.** What about the “Potentiation” value ([1]; isolate 4–4) of the same compound?
**A.** Weak

**Q.** And the “MIC in MHB +25% plasma” value ([1]; isolate 4–4)?
**A.** 1 to 4 µg/mL

**Q.** What about the “Potentiation” value ([1]; isolate 5–6) of the same compound?
**A.** Weak

**Q.** And the “MIC in MHB +25% plasma” value ([1]; isolate 5–6)?
**A.** 4 to 8 µg/mL

**Q.** And the “Potentiation” value ([1]; isolate 7–3)?
**A.** Strong

**Q.** What about the “MIC in MHB +25% plasma” value ([1]; isolate 7–3) of the same compound?
**A.** 1 to 2 µg/mL

**Q.** What about the “Potentiation” value ([2]; MHB vs MHB +25% plasma) of the same compound?
**A.** Weak

**Q.** What about the “MIC in MHB +25% plasma” value ([2]; MHB with 25% human blood plasma (sodium citrate)) of the same compound?
**A.** 2 µg/mL (≈ 0.938 µM)

**Q.** And the growth rate ([3]; isolate 2–7, MHB with 4 µg/mL peptidomimetic 1 (1/32×MIC), p<0.01 vs unsupplemented)?
**A.** significantly reduced growth rate

**Q.** And the growth rate ([3]; isolate 2–7, MHB with 8 µg/mL peptidomimetic 1 (1/16×isolate MIC), p<0.01 vs unsupplemented, Bioscreen C, 37°C, 72 h)?
**A.** significantly reduced

**Q.** What about the growth rate ([3]; isolate 7-3, MHB with 8 µg/mL peptidomimetic 1 (1/16×isolate MIC), p<0.05 vs unsupplemented, Bioscreen C, 37°C, 72 h) of the same compound?
**A.** significantly reduced
